This is an account of results in PubChem BioAssay (NCI).

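Following 48 hours of exposure in 96-well plates, responses at five concentrations were used to interpolate endpoints linearly. GI50 marks 50% less growth. TGI marks complete inhibition of growth.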 Bounds are passed on as bounds.

Among the test systems are LOX IMVI melanoma; IGROV1 ovarian; U251 CNS; RXF 393 renal; SF-268 CNS; MOLT-4 leukemia; UO-31 renal; CCRF-CEM leukemia; NCI/ADR-RES ovarian; OVCAR-4 ovarian.
What all share (assay): DTP human tumour cell line panel, 48 h

The GI50 is the concentration that inhibits growth by half. The term TGI denotes the concentration at which net growth stops. A high value points to lower sensitivity of the cells. Consider `O=C(CCl)c1ccc([N+](=O)[O-])o1`, for which the GI50 was 1.47 µM in the assay on LOX IMVI melanoma; 5.5 µM with IGROV1 ovarian; 1.95 µM in the assay on U251 CNS; 2.2 µM in the assay with RXF 393 renal; 2.54 µM in the assay with SF-268 CNS; 1.15 µM with MOLT-4 leukemia. The GI50 is 2.14 µM in the assay with UO-31 renal, 0.932 µM in the assay with CCRF-CEM leukemia, 3.51 µM in the assay with NCI/ADR-RES ovarian and 1.73 µM in the assay on OVCAR-4 ovarian. The TGI in the assay on LOX IMVI melanoma worked out at 3.19 µM; with IGROV1 ovarian it was 14 µM; in the assay with U251 CNS it was 4.37 µM; in the assay with RXF 393 renal, 8.24 µM; in the assay with SF-268 CNS, 6.8 µM; in the assay on UO-31 renal, 6.7 µM. For the same compound, the TGI is 2.51 µM with CCRF-CEM leukemia, 23.8 µM with NCI/ADR-RES ovarian and 3.32 µM in the assay on OVCAR-4 ovarian.

In the case of `N#CSc1ncnc2nc[nH]c12`, the GI50 is 1.09 µM with LOX IMVI melanoma; 35.1 µM in the assay on IGROV1 ovarian; 32.4 µM in the assay on U251 CNS; 21.6 µM with RXF 393 renal; 4.24 µM in the assay with SF-268 CNS; 4.28 µM in the assay with MOLT-4 leukemia. Besides, the GI50 in the assay with UO-31 renal is 10.4 µM; in the assay on CCRF-CEM leukemia, 3.32 µM; in the assay on NCI/ADR-RES ovarian it was 5.68 µM; with OVCAR-4 ovarian, 2.37 µM. For the same compound, the TGI with LOX IMVI melanoma was more than 91.6 µM; in the assay on IGROV1 ovarian, more than 100 µM; with U251 CNS, more than 100 µM; in the assay with RXF 393 renal, more than 100 µM; with SF-268 CNS, more than 41.1 µM; in the assay with MOLT-4 leukemia it was more than 100 µM. The TGI in the assay on UO-31 renal, with CCRF-CEM leukemia, in the assay on NCI/ADR-RES ovarian and in the assay with OVCAR-4 ovarian was more than 100 µM each time.

On to `O=C(CCN1CCCC1)Nc1ccc2c(NCc3ccc(F)cc3)c3ccccc3nc2c1`, for which the GI50 with LOX IMVI melanoma is 0.38 µM; in the assay with IGROV1 ovarian it was 0.363 µM; with U251 CNS, 0.462 µM; in the assay on RXF 393 renal, 0.401 µM; with SF-268 CNS it was 0.465 µM; with MOLT-4 leukemia, 0.398 µM. For the same compound, the GI50 in the assay with UO-31 renal was 1.33 µM; in the assay with CCRF-CEM leukemia, 0.463 µM; in the assay on NCI/ADR-RES ovarian, 9.11 µM; in the assay on OVCAR-4 ovarian it was 0.45 µM. In addition, the TGI worked out at 1.48 µM with LOX IMVI melanoma; 1.5 µM in the assay on IGROV1 ovarian; 1.88 µM in the assay with U251 CNS; 1.61 µM in the assay on RXF 393 renal; 1.91 µM with SF-268 CNS; 2.34 µM with MOLT-4 leukemia. For the same compound, the TGI with UO-31 renal was 3.09 µM; with CCRF-CEM leukemia, 13.4 µM; in the assay with NCI/ADR-RES ovarian, 43.9 µM; in the assay with OVCAR-4 ovarian it was 1.84 µM.

On to `CC(C)(O)c1ccc(N2CCN(c3nnc(Cc4ccccc4)c4ccccc34)CC2)nc1`, for which the GI50 with LOX IMVI melanoma was 14 µM; in the assay with IGROV1 ovarian it was 12.1 µM; in the assay on U251 CNS it was 13.2 µM; in the assay on RXF 393 renal it was 6.76 µM; with SF-268 CNS, 13.8 µM; in the assay with MOLT-4 leukemia it was 5.4 µM. The GI50 in the assay on UO-31 renal was 3.49 µM; with CCRF-CEM leukemia it was 8.26 µM; in the assay with NCI/ADR-RES ovarian it was 4.09 µM; with OVCAR-4 ovarian, 3.99 µM. For the same compound, the TGI with LOX IMVI melanoma worked out at 35.5 µM; in the assay on IGROV1 ovarian it was 28.4 µM; in the assay on U251 CNS it was 37.3 µM; with RXF 393 renal, 23.6 µM; with SF-268 CNS, 33.5 µM; in the assay with MOLT-4 leukemia it was 25.7 µM. Also, the TGI is 19.5 µM with UO-31 renal, more than 93 µM in the assay with CCRF-CEM leukemia, 46.8 µM in the assay on NCI/ADR-RES ovarian and 26.3 µM in the assay with OVCAR-4 ovarian.

Regarding `CCOC(=O)Cc1c[nH]c(=S)[nH]c1=O`, the GI50 in the assay with LOX IMVI melanoma, in the assay on IGROV1 ovarian, in the assay with U251 CNS, in the assay on RXF 393 renal, with SF-268 CNS and with MOLT-4 leukemia was more than 100 µM each time. Besides, the GI50 with UO-31 renal, with CCRF-CEM leukemia, with NCI/ADR-RES ovarian and in the assay with OVCAR-4 ovarian was more than 100 µM each time. In addition, the TGI with LOX IMVI melanoma, in the assay with IGROV1 ovarian, with U251 CNS, with RXF 393 renal, with SF-268 CNS and in the assay with MOLT-4 leukemia was more than 100 µM each time. Moreover, the TGI with UO-31 renal, in the assay with CCRF-CEM leukemia, with NCI/ADR-RES ovarian and with OVCAR-4 ovarian was more than 100 µM each time.

As to `CC[C@H](Nc1nc(N)nc(C)c1C#N)c1nc2cccc(CN(C)c3ncc(C(=O)NO)cn3)c2c(=O)n1-c1ccccc1`, the GI50 in the assay with LOX IMVI melanoma was 0.693 µM; in the assay on IGROV1 ovarian, 0.569 µM; in the assay with U251 CNS, 0.663 µM; with RXF 393 renal, 0.47 µM; in the assay with SF-268 CNS, 1.09 µM; in the assay with MOLT-4 leukemia, 0.204 µM. The GI50 with UO-31 renal is 1 µM; in the assay on CCRF-CEM leukemia, 0.228 µM; with NCI/ADR-RES ovarian, 11.4 µM; in the assay on OVCAR-4 ovarian, 1.01 µM. In addition, the total growth inhibition concentration (TGI) was 1.35 µM in the assay on LOX IMVI melanoma; 2.28 µM in the assay with IGROV1 ovarian; 2.03 µM in the assay with U251 CNS; 1.33 µM in the assay with RXF 393 renal; 4.19 µM with SF-268 CNS; more than 50 µM in the assay on MOLT-4 leukemia. The TGI in the assay on UO-31 renal was 3.05 µM; with CCRF-CEM leukemia, more than 50 µM; with NCI/ADR-RES ovarian, more than 50 µM; in the assay on OVCAR-4 ovarian, 6.56 µM.

Turning to `CCN(CC)CCOc1ccc(C(=C(C)c2ccc(Cl)cc2)c2ccc(OCCN(CC)CC)cc2)cc1`, the GI50 in the assay on LOX IMVI melanoma was 0.552 µM; with IGROV1 ovarian, 0.609 µM; with U251 CNS it was 0.582 µM; in the assay with RXF 393 renal it was 0.519 µM; with SF-268 CNS, 0.659 µM; with MOLT-4 leukemia, 0.674 µM. The GI50 was 0.503 µM in the assay on UO-31 renal, 0.625 µM in the assay with CCRF-CEM leukemia, 0.657 µM with NCI/ADR-RES ovarian and 0.586 µM with OVCAR-4 ovarian. In addition, the TGI with LOX IMVI melanoma was determined as 1.03 µM; with IGROV1 ovarian, 1.19 µM; in the assay with U251 CNS it was 1.15 µM; with RXF 393 renal, 1.01 µM; with SF-268 CNS it was 1.49 µM; in the assay with MOLT-4 leukemia it was 1.5 µM. Also, the total growth inhibition concentration (TGI) in the assay on UO-31 renal was determined as 0.969 µM; with CCRF-CEM leukemia it was 1.71 µM; in the assay on NCI/ADR-RES ovarian, 1.4 µM; with OVCAR-4 ovarian it was 1.32 µM.
